Key:
[1] = target: human SCD1 (Homo sapiens (Human), UniProt O00767); assay: Yeast growth assay, strain expressing human SCD1 as the sole desaturase (reduced growth as surrogate for SCD inhibition); assay type: cell-based; conditions: yeast with OLE1 deleted expressing human SCD1 from a plasmid; growth read as OD600 after 40 h at 30° C.; top drug concentration 33.3 μM
Method in brief: (§1)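 Yeast lacking OLE1 depend on plasmid-borne human SCD1 or SCD5 and are tested in SD-Ura medium without oleic/palmitoleic acid or Tween.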

[2] = target: human SCD5 (Homo sapiens (Human), UniProt Q86SK9); assay: Yeast growth assay, strain expressing human SCD5 as the sole desaturase (reduced growth as surrogate for SCD inhibition); assay type: cell-based; conditions: yeast with OLE1 deleted expressing human SCD5 from a plasmid; growth read as OD600 after 40 h at 30° C.; top drug concentration 33.3 μM
Method in brief: as §1

Sequence of human SCD5 (Q86SK9 whole entry): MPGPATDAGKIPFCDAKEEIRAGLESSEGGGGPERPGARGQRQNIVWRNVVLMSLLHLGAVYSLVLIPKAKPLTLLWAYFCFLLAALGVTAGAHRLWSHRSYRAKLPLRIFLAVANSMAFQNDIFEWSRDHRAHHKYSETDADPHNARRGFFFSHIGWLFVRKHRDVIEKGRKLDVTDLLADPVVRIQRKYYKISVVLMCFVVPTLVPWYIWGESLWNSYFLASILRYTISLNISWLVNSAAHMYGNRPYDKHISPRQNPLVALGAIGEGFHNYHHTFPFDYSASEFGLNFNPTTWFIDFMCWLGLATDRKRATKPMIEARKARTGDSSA
Sequence of human SCD1 (O00767 whole entry): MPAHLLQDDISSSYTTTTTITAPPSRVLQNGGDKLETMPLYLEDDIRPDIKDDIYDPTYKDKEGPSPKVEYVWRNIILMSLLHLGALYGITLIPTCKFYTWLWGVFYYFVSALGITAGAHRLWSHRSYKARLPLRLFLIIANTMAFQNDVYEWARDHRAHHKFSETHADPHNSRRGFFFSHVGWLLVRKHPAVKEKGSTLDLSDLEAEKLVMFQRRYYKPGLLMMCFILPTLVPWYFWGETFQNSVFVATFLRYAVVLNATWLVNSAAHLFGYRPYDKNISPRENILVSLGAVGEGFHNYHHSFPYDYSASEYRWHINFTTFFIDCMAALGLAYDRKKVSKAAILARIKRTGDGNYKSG

Compound	IC50 [1]	IC50 [2]
CN(C(=O)c1cc(-c2ccccc2)on1)c1cnn(Cc2cc(F)ccc2C(F)(F)F)c1 [Compound 76]	> 45 µM	> 45 µM
O=C(c1cc(-c2ccccc2)on1)N1CC2(C1)CN(c1ccccc1)C2 [Compound 209]	> 45 µM	> 45 µM
O=C(Nc1cnn(Cc2ccccc2)c1)c1cc(-c2cccc3c2cnn3C2COC2)on1 [Compound 97]	> 45 µM	> 45 µM
NC(=O)c1cc(C(=O)Nc2cnn(Cc3cccc(F)c3)c2)no1 [Compound 162]	> 45 µM	> 45 µM
CC(=O)N1CCN(c2cc(C(=O)Nc3cnn(Cc4ccccc4)c3)no2)CC1 [Compound 184]	29 µM	> 45 µM
Cc1nn(Cc2ccc(Cl)c(Cl)c2)c(C)c1NC(=O)c1cc(-c2ccco2)on1 [Compound 3, N-(1-(3,4-dichlorobenzyl)-3,5-dimethyl-1H-pyrazol-4-yl)-5-(furan-2-yl)isoxazole-3-carboxamide]	> 45 µM	7.15 µM
O=C(c1noc2cc(Br)ccc12)N1CCC[C@H]1c1ccccc1 [Compound 449]	> 45 µM	41.7 µM
O=C(c1cc(-c2ccco2)on1)N1CC(Nc2ccccc2)C1 [Compound 210]	> 45 µM	> 45 µM
CN(C)CC(c1ccccc1)n1cc(NC(=O)c2cc(-c3ccccc3)on2)cn1 (centres unmarked) [Compound 113]	> 45 µM	> 45 µM
Cc1csc(-c2cc(C(=O)Nc3cnn(Cc4ccccc4)c3)no2)n1 [Compound 143]	> 45 µM	> 45 µM
O=C(c1cc(-c2ccc3c(c2)OCO3)on1)N1CCC(c2ccncc2)CC1 [Compound 293]	> 45 µM	> 45 µM
CC(C)(C)OC(=O)Nc1cc(C(=O)Nc2cnn(Cc3ccccc3)c2)no1 [Compound 181]	5.8 µM	> 45 µM
Cc1cc(C2CCCN2C(=O)c2cc(-c3ccc4c(c3)OCO4)on2)no1 (centres unmarked) [Compound 442]	> 45 µM	> 45 µM
O=C(c1cc(-c2ccccc2)on1)N1CCC(c2ccc(F)cc2)C1 (centres unmarked) [Compound 334]	> 45 µM	> 45 µM
O=C(c1cc(-c2ccncc2)on1)N1CCC[C@H]1c1ccccc1 [Compound 409]	23 µM	> 45 µM
COc1ccc(C2CCCN2C(=O)c2cc(-c3ccc(F)c(F)c3)on2)cc1 (centres unmarked) [Compound 378]	> 45 µM	> 45 µM
N#Cc1ccc(-c2cc(C(=O)N3CCC(c4ccccc4)CC3)no2)cc1 [Compound 316, 4-(3-(4-phenylpiperidine-1-carbonyl)isoxazol-5-yl)benzonitrile]	> 45 µM	0.7 µM
O=C(Nc1cnn(Cc2ccccc2)c1)c1cc(-c2ccns2)on1 [Compound 126]	6.97 µM	> 45 µM
Cn1ncc2cccc(C3CCCN3C(=O)c3cc(-c4ccc5c(c4)OCO5)on3)c21 (centres unmarked) [Compound 425]	> 45 µM	> 45 µM
CC(C)c1cc(C(=O)N2CCC(c3ccccc3)C2)no1 (centres unmarked) [Compound 349]	> 45 µM	> 45 µM

Compound	IC50 [1]	IC50 [2]
CC1(c2cc(C(=O)Nc3cnn(Cc4cccc(F)c4)c3)no2)COC1 [Compound 116]	> 45 µM	> 45 µM
Cc1ncc(-c2cc(C(=O)Nc3cnn(Cc4ccccc4)c3)no2)s1 [Compound 133]	> 45 µM	> 45 µM
O=C(c1cc(-c2ccc3c(c2)OCO3)on1)N1CCCC1c1ccc(F)cn1 (centres unmarked) [Compound 272]	> 45 µM	> 45 µM
COc1ccc(-c2cc(C(=O)N3CC(c4ccccc4)C3)no2)nc1 [Compound 242, (5-(5-methoxypyridin-2-yl)isoxazol-3-yl)(3-phenylazetidin-1-yl)methanone]	0.264 µM	0.305 µM
N#Cc1ccc(Cn2cc(NC(=O)c3cc(-c4ccccc4)on3)cn2)s1 [Compound 43]	> 45 µM	> 45 µM
Cn1ncc2ccc(-c3cc(C(=O)N4CC(c5ccccc5)C4)no3)cc21 [Compound 232, (5-(1-methyl-1H-indazol-6-yl)isoxazol-3-yl)(3-phenylazetidin-1-yl)methanone]	> 45 µM	1.63 µM
O=C(Nc1cnn(Cc2cc(F)ccc2C(F)(F)F)c1)c1cc(-c2ccccn2)on1 [Compound 77]	> 45 µM	> 45 µM
CCc1cc(C(=O)Nc2cnn(Cc3cccc(F)c3)c2)no1 [Compound 104, 5-ethyl-N-(1-(3-fluorobenzyl)-1H-pyrazol-4-yl)isoxazole-3-carboxamide]	0.066 µM	1 µM
O=C(NC1CN(C(=O)c2cc(-c3ccccc3)on2)C1)c1ccccc1 [Compound 240]	> 45 µM	> 45 µM
O=C(c1cc(-c2cccnc2)on1)N1CC(c2ccccc2)C1 [Compound 234, (3-phenylazetidin-1-yl)(5-(pyridin-3-yl)isoxazol-3-yl)methanone, trifluoroacetic acid]	15.5 µM	5.08 µM
N#Cc1cccnc1C1CCCN1C(=O)c1cc(-c2ccc3c(c2)OCO3)on1 (centres unmarked) [Compound 448]	> 45 µM	> 45 µM
O=C(c1cc(-c2ccc3c(c2)OCO3)on1)N1CCc2ccccc2C1 [Compound 260]	> 45 µM	> 45 µM
CCOC(=O)c1cc(-c2cc(C(=O)Nc3cnn(Cc4cccc(F)c4)c3)no2)on1 [Compound 155]	> 45 µM	> 45 µM
O=C(c1cc(-c2ccco2)on1)N1CC(Oc2ccccc2)C1 [Compound 206, [5-(2-furyl)isoxazol-3-yl]-(3-phenoxyazetidin-1-yl)methanone]	0.28 µM	1.4 µM
O=C(c1cc(-c2ccccc2)on1)N1CC(Oc2ccccc2)C1 [Compound 213]	0.49 µM	> 45 µM
COc1ccccc1-c1cc(C(=O)N2CCC(c3ccccc3)CC2)no1 [Compound 320]	> 45 µM	> 45 µM
O=C(c1cc(-c2ccccn2)on1)N1CCC(c2ccccc2)CC1 [Compound 318]	> 45 µM	14.1 µM
O=C(Nc1cnn(Cc2ccccc2)c1)c1cc(-c2cccc3cnn(C4COC4)c23)on1 [Compound 96]	> 45 µM	> 45 µM
O=C(c1cc(-c2ccc3c(c2)OCO3)on1)N1CCCC1c1ncccn1 (centres unmarked) [Compound 431]	> 45 µM	> 45 µM
O=C(c1ccncc1)N1CCN(C(=O)c2cc(-c3ccc4c(c3)OCO4)on2)CC1 [Compound 276]	> 45 µM	> 45 µM

Compound	IC50 [1]	IC50 [2]
CS(=O)(=O)CC(c1ccccc1)n1cc(NC(=O)c2cc(-c3ccccc3)on2)cn1 (centres unmarked) [Compound 80]	> 45 µM	> 45 µM
CNC(=O)c1ccccc1-c1cc(C(=O)N2CCC(c3ccccc3)CC2)no1 [Compound 301, N-methyl-2-[3-(4-phenylpiperidine-1-carbonyl)isoxazol-5-yl]benzamide]	> 45 µM	6.58 µM
O=C(Nc1cnn(Cc2cccc(F)c2)c1)c1cc(-c2ncccc2F)on1 [Compound 108, N-(1-(3-fluorobenzyl)-1H-pyrazol-4-yl)-5-(3-fluoropyridin-2-yl)isoxazole-3-carboxamide]	1.2 µM	1.8 µM
O=C(Nc1cnn(Cc2ccccc2Cl)c1)c1cc(-c2cccc3c2cnn3C2COC2)on1 [Compound 94]	> 45 µM	> 45 µM
O=C(c1cc(-c2ccccc2)on1)N1CC2(CC(c3ccccc3)C2)C1 [Compound 227, (6-phenyl-2-azaspiro[3.3]heptan-2-yl)-(5-phenylisoxazol-3-yl)methanone]	> 45 µM	8.87 µM
O=C(Nc1cnn(CCCC(F)(F)F)c1)c1cc(-c2ccco2)on1 [Compound 34, 5-(2-furyl)-N-[1-(4,4,4-trifluorobutyl)pyrazol-4-yl]isoxazole-3-carboxamide]	> 45 µM	6.42 µM
O=C(c1cc(-c2ccco2)on1)N1CC(c2ccccc2)C1 [Compound 207, [5-(2-furyl)isoxazol-3-yl]-(3-phenylazetidin-1-yl)methanone]	2.56 µM	1.14 µM
O=C(c1cc(-c2ccccc2C(F)(F)F)on1)N1CCC(c2ccccc2)C1 (centres unmarked) [Compound 346]	> 45 µM	7.35 µM
O=C(c1cc(-c2ccccc2)on1)N1CCN(c2ccc(F)cc2)CC1 [Compound 283]	> 45 µM	> 45 µM
O=C(c1cc(-c2ccco2)on1)N1CCC(c2ccccc2)C1 (centres unmarked) [Compound 338]	> 45 µM	2.79 µM
C[S+]([O-])CC(c1ccccc1)n1cc(NC(=O)c2cc(-c3ccccc3)on2)cn1 (centres unmarked) [Compound 78]	> 45 µM	> 45 µM
O=C(Nc1cnn(Cc2ccccc2)c1)c1cc(-c2cccc3cn(C4COC4)nc23)on1 [Compound 95]	> 45 µM	> 45 µM
Cc1nn(Cc2ccc(Cl)c(Cl)c2)cc1NC(=O)c1cc(-c2ccco2)on1 [Compound 17, N-(1-(3,4-dichlorobenzyl)-3-methyl-1H-pyrazol-4-yl)-5-(furan-2-yl)isoxazole-3-carboxamide]	> 45 µM	4.87 µM
O=C(c1cc(-c2ccco2)on1)N1CC2(COC2)C1 [Compound 247]	> 45 µM	> 45 µM
C=C(C)c1cc(C(=O)N2CCC3(CCc4c(F)cccc4O3)CC2)no1 [Compound 324]	> 45 µM	3.8 µM
COc1ccc(-c2cc(C(=O)N3CC(c4cccc(F)c4)C3)no2)cc1OC [Compound 236]	3.33 µM	1.55 µM
O=C(c1cc(-c2ccc3c(c2)OCO3)on1)N1CCCc2c(F)cccc21 [Compound 263]	> 45 µM	> 45 µM
O=C(Nc1cnn(Cc2cc(F)ccc2C(F)(F)F)c1)c1cc(-c2ncccc2F)on1 [Compound 107]	> 45 µM	> 45 µM
